Numbered stars: 1 amine (or outer) side, 2 acyl side, 3 side chain; on linkers, the order of the positions; unused ones are H or OH. Bridge positions count the residues as written; N and C are the ends. Square brackets hold non-standard residues; d marks the D form. Peptide text beside a SMILES is read from it. * marks the point of attachment. ξ: configuration not given here. Pro(4S-NHCO(5-Cl-2-thienyl)) = O=C(N[C@@H]1CN[C@H](C(=O)O)C1)c1ccc(Cl)s1; ξPro(4ξ-NHCOC6H4-4-Cl) = O=C(NC1CNC(C(=O)O)C1)c1ccc(Cl)cc1; 2Thenoyl(5-Cl) = O=C(c1ccc(Cl)s1)*; Benzoyl(4-Cl) = O=C(c1ccc(Cl)cc1)*; Cysteamide = C(CS[*:3])N[*:1]; X1 = O=C(/C=C/c1ccccc1)*; Api = NC1(C(=O)O)CCNCC1; Dap = NC[C@H](N)C(=O)O; Mpa = O=C(O)CCS
Target: MDM2 (Homo sapiens, UniProt Q00987)
Sequence (Q00987 whole entry): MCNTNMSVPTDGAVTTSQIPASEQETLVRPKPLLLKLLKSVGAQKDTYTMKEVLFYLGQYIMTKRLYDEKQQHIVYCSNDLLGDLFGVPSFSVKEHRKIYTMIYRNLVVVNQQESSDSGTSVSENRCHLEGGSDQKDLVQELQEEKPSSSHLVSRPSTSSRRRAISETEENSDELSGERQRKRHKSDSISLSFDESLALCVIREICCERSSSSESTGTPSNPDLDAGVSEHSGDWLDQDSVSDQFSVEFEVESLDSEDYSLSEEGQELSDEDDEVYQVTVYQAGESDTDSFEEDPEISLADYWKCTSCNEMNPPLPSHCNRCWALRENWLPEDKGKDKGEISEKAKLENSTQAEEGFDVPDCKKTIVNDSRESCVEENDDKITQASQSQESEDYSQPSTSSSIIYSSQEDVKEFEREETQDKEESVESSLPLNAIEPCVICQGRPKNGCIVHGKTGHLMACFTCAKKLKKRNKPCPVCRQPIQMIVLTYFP
Test: MDM2 binding screen: displacement of fluorescent p53 peptide probe FP53 (fluorescence polarization)
Settings: crude macrocycle reactions; for fraction fluorescent probe displaced, Screen: initial screen
Procedure, shortened: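 Single-point screen: one fluorescence anisotropy reading at 25 °C (485 nm excitation, 535 nm emission) per macrocycle. Crude macrocycle reactions, final 10 µM, were scored for displacing the fluorescent p53 peptide from human MDM2.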

| fraction fluorescent probe displaced, Screen (Acid 25) | fraction fluorescent probe displaced, Replicate (Acid 25) | fraction fluorescent probe displaced, Screen (Acid 14) | fraction fluorescent probe displaced, Replicate (Acid 14) | fraction fluorescent probe displaced, Screen (Acid 91) | fraction fluorescent probe displaced, Replicate (Acid 91) | SMILES |
| --- | --- | --- | --- | --- | --- | --- |
| – | – | 0.20 | 0.30 | – | – | O=C1CCSSCCNC(=O)[C@H](CNC(=O)c2ccc(Cl)s2)NC(=O)c2cccc(c2)CNC(=O)[C@H](Cc2c[nH]c3ccccc23)N1 [X W B5 D3 Acid 14] |
| 0.41 | 0.22 | – | – | – | – | O=C1CCSSCCNC(=O)[C@H](CNC(=O)c2ccc(Cl)cc2)NC(=O)c2cccc(c2)CNC(=O)[C@H](Cc2c[nH]c3ccccc23)N1 [X W B5 D3 Acid 25] |
| – | – | – | – | 0.03 | 0.07 | O=C(/C=C/c1ccccc1)NC[C@@H]1NC(=O)c2cccc(c2)CNC(=O)[C@H](Cc2c[nH]c3ccccc23)NC(=O)CCSSCCNC1=O [X W B5 D3 Acid 91] |
| – | – | 0.14 | 0.10 | – | – | O=C1CCSSCCNC(=O)C2CC(NC(=O)c3ccc(Cl)s3)CN2C(=O)c2cccc(c2)CNC(=O)C(Cc2c[nH]c3ccccc23)N1 (stereo not drawn) [X W B5 D5 Acid 14] |
| – | – | – | – | 0.08 | 0.17 | O=C(C=Cc1ccccc1)NC1CC2C(=O)NCCSSCCC(=O)NC(Cc3c[nH]c4ccccc34)C(=O)NCc3cccc(c3)C(=O)N2C1 (stereo not drawn) [X W B5 D5 Acid 91] |
| – | – | 0.14 | 0.17 | – | – | O=C1CCSSCCNC(=O)C2(CCN(C(=O)c3ccc(Cl)s3)CC2)NC(=O)c2cccc(c2)CNC(=O)[C@H](Cc2c[nH]c3ccccc23)N1 [X W B5 D6 Acid 14] |
| 0.0244 | 0.12 | – | – | – | – | O=C1CCSSCCNC(=O)C2CN(C(=O)c3ccc(Cl)cc3)CCN2C(=O)c2cccc(c2)CNC(=O)C(Cc2c[nH]c3ccccc23)N1 (stereo not drawn) [X W B5 D7 Acid 25] |
| – | – | – | – | 0.16 | 0.0168 | O=C1CCSSCCNC(=O)C2CN(C(=O)C=Cc3ccccc3)CCN2C(=O)c2cccc(c2)CNC(=O)C(Cc2c[nH]c3ccccc23)N1 (stereo not drawn) [X W B5 D7 Acid 91] |
| – | – | 0.28 | 0.28 | – | – | O=C1CCSSCCNC(=O)[C@@H]2CCCN2C(=O)[C@H](CNC(=O)c2ccc(Cl)s2)NC(=O)[C@H](Cc2c[nH]c3ccccc23)N1 [X W D3 B1 Acid 14] ([Mpa]W[Dap](2Thenoyl(5-Cl))P-Cysteamide; disulfide 1-C) |
| 0.32 | 0.30 | – | – | – | – | O=C1CCSSCCNC(=O)[C@@H]2CCCN2C(=O)[C@H](CNC(=O)c2ccc(Cl)cc2)NC(=O)[C@H](Cc2c[nH]c3ccccc23)N1 [X W D3 B1 Acid 25] ([Mpa]W[Dap](Benzoyl(4-Cl))P-Cysteamide; disulfide 1-C) |
| – | – | – | – | 0.11 | -0.00827 | O=C(/C=C/c1ccccc1)NC[C@@H]1NC(=O)[C@H](Cc2c[nH]c3ccccc23)NC(=O)CCSSCCNC(=O)[C@@H]2CCCN2C1=O [X W D3 B1 Acid 91] ([Mpa]W[Dap](X1)P-Cysteamide; disulfide 1-C) |
| – | – | – | – | 0.08 | 0.04 | O=C(/C=C/c1ccccc1)NC[C@@H]1NC(=O)[C@H](Cc2c[nH]c3ccccc23)NC(=O)CCSSCCNC(=O)CCNC1=O [X W D3 B2 Acid 91] |
| 0.28 | 0.12 | – | – | – | – | O=C1CCSSCCNC(=O)[C@H]2CCCN(C2)C(=O)[C@H](CNC(=O)c2ccc(Cl)cc2)NC(=O)[C@H](Cc2c[nH]c3ccccc23)N1 [X W D3 B4 Acid 25] |
| – | – | – | – | 0.35 | 0.07 | O=C(/C=C/c1ccccc1)NC[C@@H]1NC(=O)[C@H](Cc2c[nH]c3ccccc23)NC(=O)CCSSCCNC(=O)[C@H]2CCCN(C2)C1=O [X W D3 B4 Acid 91] |
| – | – | 0.31 | 0.07 | – | – | O=C1CCSSCCNC(=O)c2cccc(c2)CNC(=O)[C@H](CNC(=O)c2ccc(Cl)s2)NC(=O)[C@H](Cc2c[nH]c3ccccc23)N1 [X W D3 B5 Acid 14] |
| 0.12 | 0.17 | – | – | – | – | O=C1CCSSCCNC(=O)c2cccc(c2)CNC(=O)C(CNC(=O)c2ccc(Cl)cc2)NC(=O)C(Cc2c[nH]c3ccccc23)N1 (stereo not drawn) [X W D3 B5 Acid 25] |
| – | – | – | – | 0.0563 | 0.17 | O=C(/C=C/c1ccccc1)NC[C@@H]1NC(=O)[C@H](Cc2c[nH]c3ccccc23)NC(=O)CCSSCCNC(=O)c2cccc(c2)CNC1=O [X W D3 B5 Acid 91] |
| – | – | 0.28 | 0.22 | – | – | O=C1CCSSCCNC(=O)[C@@H]2CCCN2C(=O)[C@@H]2C[C@H](NC(=O)c3ccc(Cl)s3)CN2C(=O)[C@H](Cc2c[nH]c3ccccc23)N1 [X W D5 B1 Acid 14] ([Mpa]W[Pro(4S-NHCO(5-Cl-2-thienyl))]P-Cysteamide; disulfide 1-C) |
| 0.22 | 0.28 | – | – | – | – | O=C1CCSSCCNC(=O)C2CCCN2C(=O)C2CC(NC(=O)c3ccc(Cl)cc3)CN2C(=O)C(Cc2c[nH]c3ccccc23)N1 (stereo not drawn) [X W D5 B1 Acid 25] ([Mpa]W[ξPro(4ξ-NHCOC6H4-4-Cl)]P-Cysteamide; disulfide 1-C; configuration not given here) |
| – | – | – | – | 0.08 | 0.07 | O=C(C=Cc1ccccc1)NC1CC2C(=O)N3CCCC3C(=O)NCCSSCCC(=O)NC(Cc3c[nH]c4ccccc34)C(=O)N2C1 (stereo not drawn) [X W D5 B1 Acid 91] |

Further lines, the molecule ahead of its results:

| SMILES | fraction fluorescent probe displaced, Screen (Acid 25) | fraction fluorescent probe displaced, Replicate (Acid 25) | fraction fluorescent probe displaced, Screen (Acid 14) | fraction fluorescent probe displaced, Replicate (Acid 14) | fraction fluorescent probe displaced, Screen (Acid 91) | fraction fluorescent probe displaced, Replicate (Acid 91) |
| --- | --- | --- | --- | --- | --- | --- |
| O=C1CCSSCCNC(=O)C2CC(NC(=O)c3ccc(Cl)cc3)CN2C(=O)C2CCCN2C(=O)C(Cc2c[nH]c3ccccc23)N1 (stereo not drawn) [X W B1 D5 Acid 25] ([Mpa]WP[ξPro(4ξ-NHCOC6H4-4-Cl)]-Cysteamide; disulfide 1-C; configuration not given here) | 0.15 | 0.17 | – | – | – | – |
| O=C1CCSSCCNC(=O)C2(CCN(C(=O)c3ccc(Cl)s3)CC2)NC(=O)[C@@H]2CCCN2C(=O)[C@H](Cc2c[nH]c3ccccc23)N1 [X W B1 D6 Acid 14] ([Mpa]WP[Api](2Thenoyl(5-Cl))-Cysteamide; disulfide 1-C) | – | – | 0.08 | -0.00432 | – | – |
| O=C1CCSSCCNC(=O)C2(CCN(C(=O)c3ccc(Cl)cc3)CC2)NC(=O)C2CCCN2C(=O)C(Cc2c[nH]c3ccccc23)N1 (stereo not drawn) [X W B1 D6 Acid 25] ([Mpa]WP[Api](Benzoyl(4-Cl))-Cysteamide; disulfide 1-C; configuration not given here) | 0.19 | 0.07 | – | – | – | – |
| O=C1CCSSCCNC(=O)C2CN(C(=O)c3ccc(Cl)cc3)CCN2C(=O)C2CCCN2C(=O)C(Cc2c[nH]c3ccccc23)N1 (stereo not drawn) [X W B1 D7 Acid 25] | 0.19 | 0.17 | – | – | – | – |
| O=C1CCNC(=O)[C@H](Cc2c[nH]c3ccccc23)NC(=O)CCSSCCNC(=O)[C@H](CNC(=O)c2ccc(Cl)s2)N1 [X W B2 D3 Acid 14] | – | – | 0.23 | 0.35 | – | – |
| O=C1CCNC(=O)[C@H](Cc2c[nH]c3ccccc23)NC(=O)CCSSCCNC(=O)[C@H](CNC(=O)c2ccc(Cl)cc2)N1 [X W B2 D3 Acid 25] | 0.28 | 0.22 | – | – | – | – |
| O=C(/C=C/c1ccccc1)NC[C@@H]1NC(=O)CCNC(=O)[C@H](Cc2c[nH]c3ccccc23)NC(=O)CCSSCCNC1=O [X W B2 D3 Acid 91] | – | – | – | – | 0.08 | 0.09 |
| O=C1CCSSCCNC(=O)C2(CCN(C(=O)c3ccc(Cl)s3)CC2)NC(=O)CCNC(=O)[C@H](Cc2c[nH]c3ccccc23)N1 [X W B2 D6 Acid 14] | – | – | 0.20 | -0.00432 | – | – |
| O=C1CCSSCCNC(=O)C2(CCN(C(=O)c3ccc(Cl)cc3)CC2)NC(=O)CCNC(=O)[C@H](Cc2c[nH]c3ccccc23)N1 [X W B2 D6 Acid 25] | 0.09 | 0.0465 | – | – | – | – |
| O=C1CCSSCCNC(=O)C2(CCN(C(=O)/C=C/c3ccccc3)CC2)NC(=O)CCNC(=O)[C@H](Cc2c[nH]c3ccccc23)N1 [X W B2 D6 Acid 91] | – | – | – | – | 0.22 | 0.09 |
| O=C1CCSSCCNC(=O)[C@H](CNC(=O)c2ccc(Cl)cc2)NC(=O)[C@H]2CCCN(C2)C(=O)[C@H](Cc2c[nH]c3ccccc23)N1 [X W B4 D3 Acid 25] | 0.25 | 0.30 | – | – | – | – |
| O=C1CCSSCCNC(=O)C2CC(NC(=O)c3ccc(Cl)s3)CN2C(=O)C2CCCN(C2)C(=O)C(Cc2c[nH]c3ccccc23)N1 (stereo not drawn) [X W B4 D5 Acid 14] | – | – | 0.23 | 0.35 | – | – |
| O=C(C=Cc1ccccc1)NC1CC2C(=O)NCCSSCCC(=O)NC(Cc3c[nH]c4ccccc34)C(=O)N3CCCC(C3)C(=O)N2C1 (stereo not drawn) [X W B4 D5 Acid 91] | – | – | – | – | 0.30 | 0.22 |
| O=C1CCSSCCNC(=O)C2(CCN(C(=O)c3ccc(Cl)s3)CC2)NC(=O)[C@H]2CCCN(C2)C(=O)[C@H](Cc2c[nH]c3ccccc23)N1 [X W B4 D6 Acid 14] | – | – | 0.17 | 0.33 | – | – |
| O=C1CCSSCCNC(=O)C2(CCN(C(=O)c3ccc(Cl)cc3)CC2)NC(=O)[C@H]2CCCN(C2)C(=O)[C@H](Cc2c[nH]c3ccccc23)N1 [X W B4 D6 Acid 25] | 0.25 | 0.12 | – | – | – | – |
| O=C1CCSSCCNC(=O)C2CN(C(=O)c3ccc(Cl)s3)CCN2C(=O)C2CCCN(C2)C(=O)C(Cc2c[nH]c3ccccc23)N1 (stereo not drawn) [X W B4 D7 Acid 14] | – | – | 0.34 | 0.33 | – | – |
